Experimental data from publication PMC11984392, “EphA2-targeted alpha-particle theranostics for enhancing PDAC treatment” (Theranostics, 2025).
Read-outs that look alike come from different tables or passages of the source. *1 amine or outer side, *2 acyl side, *3 side chain or, on linkers, in order; H or OH if unused. Where a SMILES comes first, the peptide text is derived from it. Bridges are numbered along the chain shown (N, C = ends). [ ]: non-standard residue; d: D form. The star is where a group is joined. TATA = O=C(CC[*:1])N1CN(C(=O)CC[*:2])CN(C(=O)CC[*:3])C1; NOTA = O=C(O)CN1CCN(CC(=O)O)CCN(CC(=O)*)CC1; Hyp = O=C(O)[C@@H]1C[C@@H](O)CN1; hArg = N=C(N)NCCCC[C@H](N)C(=O)O; PEG2 = NCCOCCOCCC(=O)O; Sar = CNCC(=O)O

Assays:
BxPC3 tumor xenografts = experiment: Ex vivo biodistribution; format: in vivo, NSG mice; conditions: BxPC3 xenograft; 60 min p.i.; mean ± SEM (n = 4 or 5)
Protocol: (§1) Animal studies were performed under Johns Hopkins University Animal Care and Use Committee (ACUC)-approved protocol (Principal investigator: Sridhar Nimmagadda, Ph.D. and Protocol number M021M175). Male and Female NSG mice (5-6 weeks old) were purchased from JHU immunocompromised core and used to establish xenografts by administering cells subcutaneously (top right flank, unless otherwise noted) to form various tumor models within 3-4 weeks. Following cell numbers were used: Panc1, AsPC1, BxPC3 (1 M), Hs766T and SU8686 (2 M), CFPAC and Panc1005 (5 M). Imaging or biodistribution studies (n = 3-5) were conducted on mice with tumor volumes of 100-200 mm^3. The Panc1 orthotopic tumor model was established by surgically implanting a 3-5 mm^3 section of Panc1 tumor xenograft directly onto the pancreas. The implanted tumors were allowed to grow and were ready for imaging after 10 days of implantation.
(§2) Mice with 100-200 mm^3 tumor volume were used for ex vivo biodistribution studies. For radiotracer pharmacokinetics and dosimetry studies, mice with Panc1 tumor xenograft received ~80 µCi (2.96 MBq) [^68Ga]AJ201 and were sacrificed at pre-determined time points (5, 30, 60, 90 and 120 min). All other mice were injected with ~50 µCi (1.85 MBq; 0.2 to 0.5 nmol) Ga-68 labeled radiotracer and were sacrificed at 60 min. The selected tissues were collected, weighed, counted, and their %ID/g values calculated for biodistribution analysis. For pharmacokinetics and dosimetry studies, selected tissues included blood, muscle, tumor, thymus, heart, lung, liver, pancreas, stomach, small intestine, large intestine, spleen, adrenals, kidney, bladder, femur, brain and tumor xenografts. For other studies, selected tissues were blood, muscle, tumor, heart, lung, liver, pancreas, small intestine, spleen, kidney.

Ex vivo biodistribution = format: in vivo, NSG mice; conditions: both sexes, NSG, mouse, total radioactivity, 60 min p.i., mean ± SEM (n = 4 or 5)
Protocol: as §1, §2

With `CC(C)C[C@@H]1NC(=O)[C@@H]2CSCCC(=O)N3CN(CN(C3)C(=O)CCSC[C@H](NC(=O)[C@H](CC(=O)O)NC(=O)[C@H](CCCCNC(=N)N)NC(=O)[C@H](C)NC(=O)CNC(=O)CN(C)C(=O)CN(C)C(=O)CN(C)C(=O)[C@H](CCCNC(=N)N)NC(=O)CNC(=O)CCOCCOCCNC(=O)CN3CCN(CC(=O)O)CCN(CC(=O)O)CC3)C(=O)N3C[C@H](O)C[C@H]3C(=O)N[C@@H](CC(C)C)C(=O)N[C@@H](C(C)C)C(=O)N[C@@H](CC(N)=O)C(=O)N3CCC[C@H]3C(=O)N[C@@H](CC(C)C)C(=O)N2)C(=O)CCSC[C@@H](C(N)=O)NC(=O)[C@H](CCCCNC(=N)N)NC(=O)[C@H](Cc2c[nH]c3ccccc23)NC(=O)[C@@H](CC(=O)O)NC(=O)[C@@H]2CCCN2C(=O)[C@H](Cc2c[nH]cn2)NC1=O` [[^68Ga]AJ201, metal not drawn] ({NOTA-PEG2}-GR[Sar][Sar][Sar]GA[hArg]DC[Hyp]LVNPLCLHP[dD]W[hArg]C-NH2; linker 10-17-24 via TATA) the Heart uptake (BxPC3 tumor xenografts) was 0.29 ± 0.01 %ID/g, the tissue uptake at 1 h (Ex vivo biodistribution; blood, AsPC1 xenograft, read-out: Blood uptake) was 3.32 ± 0.24 %ID/g and the tissue uptake at 1 h (Ex vivo biodistribution; blood, BxPC3 xenograft, read-out: Blood uptake) was 0.58 ± 0.04 %ID/g. For the same molecule, the tissue uptake at 1 h (Ex vivo biodistribution; blood, CFPAC xenograft, read-out: Blood uptake) was 0.69 ± 0.21 %ID/g, the tissue uptake at 1 h (Ex vivo biodistribution; blood, Hs766T xenograft, read-out: Blood uptake) was 1.39 ± 0.3 %ID/g and the tissue uptake at 1 h (Ex vivo biodistribution; blood, Panc1005 xenograft, read-out: Blood uptake) was 0.44 ± 0.05 %ID/g. It also gave a tissue uptake at 1 h (Ex vivo biodistribution; blood, Su8686 xenograft, read-out: Blood uptake) of 0.71 ± 0.18 %ID/g, a tissue uptake at 1 h (Ex vivo biodistribution; heart, AsPC1 xenograft, read-out: Heart uptake) of 1.25 ± 0.1 %ID/g and a tissue uptake at 1 h (Ex vivo biodistribution; heart, CFPAC xenograft, read-out: Heart uptake) of 0.34 ± 0.08 %ID/g. For the same molecule, the tissue uptake at 1 h (Ex vivo biodistribution; heart, Hs766T xenograft, read-out: Heart uptake) was 0.9 ± 0.25 %ID/g, the tissue uptake at 1 h (Ex vivo biodistribution; heart, Panc1005 xenograft, read-out: Heart uptake) was 0.2 ± 0.02 %ID/g and the tissue uptake at 1 h (Ex vivo biodistribution; heart, Su8686 xenograft, read-out: Heart uptake) was 0.25 ± 0.06 %ID/g. It also gave a tissue uptake at 1 h (Ex vivo biodistribution; kidney, AsPC1 xenograft, read-out: Kidney uptake) of 59.6 ± 2.86 %ID/g, a tissue uptake at 1 h (Ex vivo biodistribution; kidney, BxPC3 xenograft, read-out: Kidney uptake) of 59 ± 7.17 %ID/g and a tissue uptake at 1 h (Ex vivo biodistribution; kidney, CFPAC xenograft, read-out: Kidney uptake) of 69.1 ± 4.56 %ID/g. For the same molecule, the tissue uptake at 1 h (Ex vivo biodistribution; kidney, Hs766T xenograft, read-out: Kidney uptake) was 52.6 ± 4.07 %ID/g, the tissue uptake at 1 h (Ex vivo biodistribution; kidney, Panc1005 xenograft, read-out: Kidney uptake) was 67 ± 6.9 %ID/g and the tissue uptake at 1 h (Ex vivo biodistribution; kidney, Su8686 xenograft, read-out: Kidney uptake) was 37.7 ± 2.64 %ID/g. It also gave a tissue uptake at 1 h (Ex vivo biodistribution; liver, AsPC1 xenograft, read-out: Liver uptake) of 1.59 ± 0.07 %ID/g, a tissue uptake at 1 h (Ex vivo biodistribution; liver, BxPC3 xenograft, read-out: Liver uptake) of 0.42 ± 0.02 %ID/g and a tissue uptake at 1 h (Ex vivo biodistribution; liver, CFPAC xenograft, read-out: Liver uptake) of 0.43 ± 0.09 %ID/g. It also gave a tissue uptake at 1 h (Ex vivo biodistribution; liver, Hs766T xenograft, read-out: Liver uptake) of 0.89 ± 0.21 %ID/g, a tissue uptake at 1 h (Ex vivo biodistribution; liver, Panc1005 xenograft, read-out: Liver uptake) of 0.29 ± 0.03 %ID/g and a tissue uptake at 1 h (Ex vivo biodistribution; liver, Su8686 xenograft, read-out: Liver uptake) of 0.34 ± 0.06 %ID/g. It also gave a tissue uptake at 1 h (Ex vivo biodistribution; lung, AsPC1 xenograft, read-out: Lung uptake) of 2.78 ± 0.13 %ID/g, a tissue uptake at 1 h (Ex vivo biodistribution; lung, BxPC3 xenograft, read-out: Lung uptake) of 0.7 ± 0.04 %ID/g and a tissue uptake at 1 h (Ex vivo biodistribution; lung, CFPAC xenograft, read-out: Lung uptake) of 0.89 ± 0.2 %ID/g. For the same molecule, the tissue uptake at 1 h (Ex vivo biodistribution; lung, Hs766T xenograft, read-out: Lung uptake) was 1.71 ± 0.55 %ID/g, the tissue uptake at 1 h (Ex vivo biodistribution; lung, Panc1005 xenograft, read-out: Lung uptake) was 0.54 ± 0.05 %ID/g and the tissue uptake at 1 h (Ex vivo biodistribution; lung, Su8686 xenograft, read-out: Lung uptake) was 0.76 ± 0.16 %ID/g. It also gave a tissue uptake at 1 h (Ex vivo biodistribution; muscle, AsPC1 xenograft, read-out: Muscle uptake) of 0.41 ± 0.03 %ID/g, a tissue uptake at 1 h (Ex vivo biodistribution; muscle, BxPC3 xenograft, read-out: Muscle uptake) of 0.18 ± 0.01 %ID/g and a tissue uptake at 1 h (Ex vivo biodistribution; muscle, Hs766T xenograft, read-out: Muscle uptake) of 0.46 ± 0.13 %ID/g. It also gave a tissue uptake at 1 h (Ex vivo biodistribution; muscle, Panc1005 xenograft, read-out: Muscle uptake) of 0.11 ± 0.01 %ID/g, a tissue uptake at 1 h (Ex vivo biodistribution; muscle, Su8686 xenograft, read-out: Muscle uptake) of 0.16 ± 0.04 %ID/g and a tissue uptake at 1 h (Ex vivo biodistribution; pancreas, AsPC1 xenograft, read-out: Pancreas uptake) of 0.65 ± 0.04 %ID/g. It also gave a tissue uptake at 1 h (Ex vivo biodistribution; pancreas, BxPC3 xenograft, read-out: Pancreas uptake) of 0.25 ± 0.02 %ID/g, a tissue uptake at 1 h (Ex vivo biodistribution; pancreas, CFPAC xenograft, read-out: Pancreas uptake) of 0.32 ± 0.07 %ID/g and a tissue uptake at 1 h (Ex vivo biodistribution; pancreas, Hs766T xenograft, read-out: Pancreas uptake) of 0.61 ± 0.22 %ID/g. For the same molecule, the tissue uptake at 1 h (Ex vivo biodistribution; pancreas, Panc1005 xenograft, read-out: Pancreas uptake) was 0.21 ± 0.03 %ID/g and the tissue uptake at 1 h (Ex vivo biodistribution; pancreas, Su8686 xenograft, read-out: Pancreas uptake) was 0.22 ± 0.05 %ID/g.
